# Laboratory results reported in ChEMBL document CHEMBL1147799, “An integrated in silico 3D model-driven discovery of a novel, potent, and selective amidosulfonamide 5-HT1A agonist (PRX-00023) for the treatment of anxiety and depression” (J Med Chem, 2006).
# The source made the active and inactive calls. The calls are words filed in the database; no cut-off is given here.
# How the values were obtained:
# [1] = target: T1, Alpha-2A adrenergic receptor (Rattus norvegicus) (UniProt P22909); assay: Displacement of [3H]RX 821002 from Adrenergic alpha-2a receptor in rat cerebral cortex cells at 1 uM; assay type: cell-based
# T1 sequence (whole entry): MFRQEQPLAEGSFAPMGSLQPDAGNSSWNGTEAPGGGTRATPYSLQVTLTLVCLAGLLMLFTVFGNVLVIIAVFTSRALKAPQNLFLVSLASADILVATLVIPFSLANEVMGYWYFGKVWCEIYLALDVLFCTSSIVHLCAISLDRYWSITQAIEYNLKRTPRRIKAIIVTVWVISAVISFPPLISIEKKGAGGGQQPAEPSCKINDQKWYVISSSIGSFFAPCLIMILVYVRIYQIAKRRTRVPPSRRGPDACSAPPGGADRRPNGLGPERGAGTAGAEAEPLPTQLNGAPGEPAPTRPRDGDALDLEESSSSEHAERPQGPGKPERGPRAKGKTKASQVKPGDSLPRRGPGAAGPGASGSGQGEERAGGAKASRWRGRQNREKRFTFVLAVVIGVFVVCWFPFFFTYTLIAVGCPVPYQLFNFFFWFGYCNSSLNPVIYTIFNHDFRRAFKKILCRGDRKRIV
# [2] = target: 5-hydroxytryptamine receptor 2B (Homo sapiens, UniProt P41595); assay: Binding affinity to 5HT2B receptor by radioligand binding assay
# Chain of 5-hydroxytryptamine receptor 2B (P41595 whole entry): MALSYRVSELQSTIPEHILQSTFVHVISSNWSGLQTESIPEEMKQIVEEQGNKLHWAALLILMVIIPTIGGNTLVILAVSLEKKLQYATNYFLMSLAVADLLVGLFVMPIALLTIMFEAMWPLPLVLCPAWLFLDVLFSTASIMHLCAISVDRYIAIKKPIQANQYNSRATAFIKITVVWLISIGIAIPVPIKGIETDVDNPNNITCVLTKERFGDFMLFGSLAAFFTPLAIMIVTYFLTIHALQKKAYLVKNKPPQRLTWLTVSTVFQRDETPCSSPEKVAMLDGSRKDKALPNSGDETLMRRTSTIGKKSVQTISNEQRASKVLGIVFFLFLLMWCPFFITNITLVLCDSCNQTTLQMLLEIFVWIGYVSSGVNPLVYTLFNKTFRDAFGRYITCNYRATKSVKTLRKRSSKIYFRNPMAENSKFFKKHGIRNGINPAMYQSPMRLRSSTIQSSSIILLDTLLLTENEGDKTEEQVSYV
# [3] = target: Voltage-gated inwardly rectifying potassium channel KCNH2 (Homo sapiens, UniProt Q12809); assay: Inhibition of hERG potassium channel in HEK293 cells by patch clamp assay
# Chain of Voltage-gated inwardly rectifying potassium channel KCNH2 (Q12809 whole entry): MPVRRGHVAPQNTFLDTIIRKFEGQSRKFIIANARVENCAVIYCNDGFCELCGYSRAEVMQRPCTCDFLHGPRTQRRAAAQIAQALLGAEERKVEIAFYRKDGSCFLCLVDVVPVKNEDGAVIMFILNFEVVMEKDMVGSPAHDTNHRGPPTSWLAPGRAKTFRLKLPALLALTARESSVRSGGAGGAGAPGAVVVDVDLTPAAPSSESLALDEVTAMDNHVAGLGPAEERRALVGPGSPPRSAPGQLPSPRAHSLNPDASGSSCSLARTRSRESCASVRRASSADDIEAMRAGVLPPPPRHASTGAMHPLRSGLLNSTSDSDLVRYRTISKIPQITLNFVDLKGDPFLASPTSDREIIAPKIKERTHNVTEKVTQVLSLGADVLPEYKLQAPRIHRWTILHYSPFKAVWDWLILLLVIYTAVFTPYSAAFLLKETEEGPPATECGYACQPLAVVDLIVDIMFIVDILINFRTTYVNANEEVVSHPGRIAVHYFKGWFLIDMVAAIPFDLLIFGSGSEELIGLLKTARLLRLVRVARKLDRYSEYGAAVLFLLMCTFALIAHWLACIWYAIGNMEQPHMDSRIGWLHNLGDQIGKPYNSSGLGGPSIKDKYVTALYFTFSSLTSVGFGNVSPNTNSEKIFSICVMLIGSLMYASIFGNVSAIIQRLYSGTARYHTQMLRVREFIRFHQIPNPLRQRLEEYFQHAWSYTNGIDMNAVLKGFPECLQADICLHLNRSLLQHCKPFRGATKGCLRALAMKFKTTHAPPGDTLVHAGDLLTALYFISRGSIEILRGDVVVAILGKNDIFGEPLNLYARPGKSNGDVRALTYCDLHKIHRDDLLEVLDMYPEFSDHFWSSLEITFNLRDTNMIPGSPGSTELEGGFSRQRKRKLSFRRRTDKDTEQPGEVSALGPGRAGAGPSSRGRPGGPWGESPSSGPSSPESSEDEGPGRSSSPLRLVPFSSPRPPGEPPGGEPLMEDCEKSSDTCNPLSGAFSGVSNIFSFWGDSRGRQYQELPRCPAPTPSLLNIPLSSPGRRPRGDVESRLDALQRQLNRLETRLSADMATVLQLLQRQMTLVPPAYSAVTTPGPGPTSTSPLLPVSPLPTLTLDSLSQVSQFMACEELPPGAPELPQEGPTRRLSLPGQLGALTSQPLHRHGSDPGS
# [4] = Half life in human liver microsome at 5 uM; assay type: ADME; details: liver microsomes
# hERG (KCNH2) = hERG (KCNH2) (Homo sapiens, UniProt Q12809); assay: Inhibition of hERG potassium channel in HEK293 cells by patch clamp assay at 1 uM; details: HEK293 cells that express hERG
# [5] = target: 5-hydroxytryptamine receptor 1B (Rattus norvegicus, UniProt P28564); assay: Binding affinity to 5HT1B receptor in rat cerebral cortex by radioligand binding assay; assay type: tissue-based
# Chain of 5-hydroxytryptamine receptor 1B (P28564 whole entry): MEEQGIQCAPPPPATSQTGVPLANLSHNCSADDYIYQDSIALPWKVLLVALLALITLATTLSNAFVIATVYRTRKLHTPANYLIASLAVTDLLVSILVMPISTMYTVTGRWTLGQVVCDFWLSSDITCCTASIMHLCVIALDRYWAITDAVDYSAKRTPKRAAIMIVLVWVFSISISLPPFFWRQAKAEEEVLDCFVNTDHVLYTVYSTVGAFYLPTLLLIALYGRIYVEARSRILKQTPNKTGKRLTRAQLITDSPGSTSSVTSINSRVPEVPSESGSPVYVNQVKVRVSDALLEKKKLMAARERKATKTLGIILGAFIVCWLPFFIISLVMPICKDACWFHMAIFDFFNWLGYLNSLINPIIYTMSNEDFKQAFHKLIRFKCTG
# [6] = target: 5-hydroxytryptamine receptor 2C (Homo sapiens, UniProt P28335); assay: Binding affinity to human 5HT2C receptor by radioligand binding assay
# Chain of 5-hydroxytryptamine receptor 2C (P28335 whole entry): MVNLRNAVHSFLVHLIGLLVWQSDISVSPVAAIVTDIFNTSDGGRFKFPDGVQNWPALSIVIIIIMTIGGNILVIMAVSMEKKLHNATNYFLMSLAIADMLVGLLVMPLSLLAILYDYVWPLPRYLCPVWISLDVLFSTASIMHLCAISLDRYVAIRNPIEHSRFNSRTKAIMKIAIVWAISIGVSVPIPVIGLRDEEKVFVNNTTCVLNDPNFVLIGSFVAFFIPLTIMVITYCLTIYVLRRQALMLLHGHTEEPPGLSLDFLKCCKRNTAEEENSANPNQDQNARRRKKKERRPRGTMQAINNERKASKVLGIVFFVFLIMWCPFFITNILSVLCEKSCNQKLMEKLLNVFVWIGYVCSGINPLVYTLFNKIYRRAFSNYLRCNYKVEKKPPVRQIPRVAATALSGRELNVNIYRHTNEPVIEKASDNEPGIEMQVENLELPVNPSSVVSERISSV
# [7] = target: 5-hydroxytryptamine receptor 4 (Homo sapiens, UniProt Q13639); assay: Binding affinity to human 5HT4e receptor by radioligand binding assay
# Chain of 5-hydroxytryptamine receptor 4 (Q13639 whole entry): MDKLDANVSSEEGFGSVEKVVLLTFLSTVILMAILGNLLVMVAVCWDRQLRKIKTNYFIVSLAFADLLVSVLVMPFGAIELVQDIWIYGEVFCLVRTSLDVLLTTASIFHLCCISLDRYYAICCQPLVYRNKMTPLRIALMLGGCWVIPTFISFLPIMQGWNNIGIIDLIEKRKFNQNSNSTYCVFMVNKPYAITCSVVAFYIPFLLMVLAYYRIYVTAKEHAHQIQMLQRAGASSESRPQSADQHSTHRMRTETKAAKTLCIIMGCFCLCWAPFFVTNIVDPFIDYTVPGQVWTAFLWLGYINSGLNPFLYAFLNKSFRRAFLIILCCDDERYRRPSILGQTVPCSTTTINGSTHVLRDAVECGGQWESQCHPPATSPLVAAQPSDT
# [8] = target: 5-hydroxytryptamine receptor 5A (Homo sapiens, UniProt P47898); assay: Binding affinity to human 5HT5A receptor by radioligand binding assay
# Chain of 5-hydroxytryptamine receptor 5A (P47898 whole entry): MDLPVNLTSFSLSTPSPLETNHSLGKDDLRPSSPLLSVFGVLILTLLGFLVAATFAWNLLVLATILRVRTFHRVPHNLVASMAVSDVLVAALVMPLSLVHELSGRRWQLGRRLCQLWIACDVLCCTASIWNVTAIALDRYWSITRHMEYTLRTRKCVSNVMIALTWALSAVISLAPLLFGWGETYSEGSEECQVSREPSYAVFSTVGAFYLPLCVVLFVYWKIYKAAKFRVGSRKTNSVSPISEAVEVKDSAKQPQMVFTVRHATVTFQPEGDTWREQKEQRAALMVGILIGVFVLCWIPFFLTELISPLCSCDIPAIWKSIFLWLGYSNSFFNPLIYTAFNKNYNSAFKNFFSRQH
# [9] = Half life in human liver S9 fraction at 5 uM; assay type: ADME
# Cytochrome P450 2D6 = Cytochrome P450 2D6 (Homo sapiens, UniProt P10635); assay: Inhibition of human recombinant cytochrome P450 2D6; assay type: ADME; details: recombinant enzyme
# Chain of Cytochrome P450 2D6 (P10635 whole entry): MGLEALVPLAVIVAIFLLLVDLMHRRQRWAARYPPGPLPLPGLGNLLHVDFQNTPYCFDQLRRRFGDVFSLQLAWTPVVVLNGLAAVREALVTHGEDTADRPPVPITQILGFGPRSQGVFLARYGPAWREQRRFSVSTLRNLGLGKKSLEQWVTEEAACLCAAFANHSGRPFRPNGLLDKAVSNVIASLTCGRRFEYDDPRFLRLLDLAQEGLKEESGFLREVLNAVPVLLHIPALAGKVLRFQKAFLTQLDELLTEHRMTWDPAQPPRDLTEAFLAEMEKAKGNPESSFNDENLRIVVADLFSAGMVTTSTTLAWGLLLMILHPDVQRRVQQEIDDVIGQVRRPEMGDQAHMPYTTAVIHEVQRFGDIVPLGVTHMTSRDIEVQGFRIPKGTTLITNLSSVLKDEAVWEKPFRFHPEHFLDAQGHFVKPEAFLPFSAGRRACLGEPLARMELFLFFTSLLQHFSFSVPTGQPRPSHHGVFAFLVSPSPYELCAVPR
# [10] = Cmax in Sprague-Dawley rat at 3 mg/kg, po; assay type: ADME, organism-based; design: dose 3 mg/kg, route oral; details: in vivo
# [11] = Oral bioavailability in Beagle dog at 3 mg/kg, po and 1 mg/kg, iv; assay type: ADME, organism-based, Canis lupus familiaris; details: in vivo
# [12] = Cmax in Beagle dog at 3 mg/kg, po; assay type: ADME, organism-based, Canis lupus familiaris; design: dose 3 mg/kg, route oral; details: in vivo
# [13] = Protein binding in human serum at 10 uM; assay type: ADME, organism-based; details: read-out: PPB (converted)
# Adrenergic receptor beta = Adrenergic receptor beta (Homo sapiens, UniProt P08588+P07550+P13945); assay: Binding affinity to beta adrenergic receptor by radioligand binding assay; assay type: protein assay
# Translocator protein = Translocator protein (Homo sapiens, UniProt P30536); assay: Binding affinity to benzodiazepine receptor by radioligand binding assay
# Chain of Translocator protein (P30536 whole entry): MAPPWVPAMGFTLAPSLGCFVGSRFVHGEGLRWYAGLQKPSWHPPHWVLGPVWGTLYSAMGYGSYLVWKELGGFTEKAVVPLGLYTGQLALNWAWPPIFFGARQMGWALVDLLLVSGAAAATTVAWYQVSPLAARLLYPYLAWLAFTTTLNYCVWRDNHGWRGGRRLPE
# [14] = Binding affinity to bradykinin receptor by radioligand binding assay
# [15] = target: Endothelin receptor, ET-A/ET-B (Homo sapiens, UniProt P24530+P25101); assay: Binding affinity to endothelin receptor by radioligand binding assay; assay type: protein assay
# [16] = target: GABA-A receptor; anion channel; assay: Binding affinity to GABA receptor by radioligand binding assay; assay type: protein-complex assay
# [17] = Binding affinity to galanin receptor by radioligand binding assay
# Cholecystokinin receptor = Cholecystokinin receptor (Homo sapiens, UniProt P32239+P32238); assay: Binding affinity to cholecystokinin receptor by radioligand binding assay; assay type: protein assay
# [18] = Terminal half life in human; assay type: ADME, organism-based; details: in vivo
# [19] = Binding affinity to neurokinin receptor by radioligand binding assay
# Nociceptin receptor = Nociceptin receptor (Homo sapiens, UniProt P41146); assay: Binding affinity to orphanin receptor by radioligand binding assay
# [20] = Binding affinity to neuropeptide receptor by radioligand binding assay
# [21] = Binding affinity to sodium channel by radioligand binding assay
# [22] = Binding affinity to chloride channel by radioligand binding assay
# [23] = target: Sodium-dependent dopamine transporter (Homo sapiens, UniProt Q01959); assay: Binding affinity to dopamine transporter by radioligand binding assay
# Chain of Sodium-dependent dopamine transporter (Q01959 whole entry): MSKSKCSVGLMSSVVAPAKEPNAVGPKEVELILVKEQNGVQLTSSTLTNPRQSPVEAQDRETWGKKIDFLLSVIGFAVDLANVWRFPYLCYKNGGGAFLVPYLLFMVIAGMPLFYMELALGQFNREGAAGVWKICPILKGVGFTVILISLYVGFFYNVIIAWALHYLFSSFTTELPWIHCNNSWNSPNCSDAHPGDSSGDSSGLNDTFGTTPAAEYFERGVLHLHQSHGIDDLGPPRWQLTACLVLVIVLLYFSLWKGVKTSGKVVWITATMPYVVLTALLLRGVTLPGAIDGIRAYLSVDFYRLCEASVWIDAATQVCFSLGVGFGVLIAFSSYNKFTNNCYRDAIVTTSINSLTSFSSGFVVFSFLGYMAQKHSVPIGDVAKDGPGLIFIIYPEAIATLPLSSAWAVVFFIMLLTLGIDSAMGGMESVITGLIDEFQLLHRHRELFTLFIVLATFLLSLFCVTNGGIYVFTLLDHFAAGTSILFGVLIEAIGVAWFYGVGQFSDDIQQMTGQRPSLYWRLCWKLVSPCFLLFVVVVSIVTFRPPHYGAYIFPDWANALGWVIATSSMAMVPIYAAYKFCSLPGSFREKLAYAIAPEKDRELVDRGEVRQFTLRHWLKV
# Mus musculus = assay: Decrease in stress-induced hyperthermia in 129S6/SvEvTac mouse at 20 mg/kg, po; assay type: functional, organism-based; design: dose 20 mg/kg
# Homo sapiens = organism: Homo sapiens; assay: Transient increase in prolactin level in human serum at greater than 30 mg; assay type: functional, organism-based
# [24] = Binding affinity to melanocortin receptor by radioligand binding assay
# [25] = target: Muscarinic acetylcholine receptor; assay: Binding affinity to muscarinic receptor by radioligand binding assay; assay type: protein assay
# [26] = target: T2, 5-hydroxytryptamine receptor 1A (Homo sapiens, UniProt P08908); assay: Displacement of [3H]8-OH-DPAT from human 5HT1A receptor in HEK293 cells
# T2 sequence (P08908 whole entry): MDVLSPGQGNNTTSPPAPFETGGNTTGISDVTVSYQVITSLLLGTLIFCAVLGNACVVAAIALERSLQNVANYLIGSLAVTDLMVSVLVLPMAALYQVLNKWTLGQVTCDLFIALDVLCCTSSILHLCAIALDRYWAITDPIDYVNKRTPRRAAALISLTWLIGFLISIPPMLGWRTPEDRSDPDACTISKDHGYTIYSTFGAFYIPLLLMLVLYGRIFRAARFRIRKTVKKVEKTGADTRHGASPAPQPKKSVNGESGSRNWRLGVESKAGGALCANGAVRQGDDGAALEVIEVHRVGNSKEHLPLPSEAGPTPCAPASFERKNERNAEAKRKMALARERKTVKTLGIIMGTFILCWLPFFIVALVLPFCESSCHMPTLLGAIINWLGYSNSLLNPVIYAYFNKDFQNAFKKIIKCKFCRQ
# D(2) dopamine receptor = D(2) dopamine receptor (Homo sapiens, UniProt P14416); assay: Binding affinity to D2 receptor by radioligand binding assay
# [27] = target: T2, 5-hydroxytryptamine receptor 1A; assay: Activity against 5HT1A receptor by Gi-[35S]GTP-gamma-S binding assay; assay type: functional
# [28] = Half life in Sprague-Dawley rat at 3 mg/kg, po; assay type: ADME, organism-based; design: dose 3 mg/kg, route oral; details: in vivo
# [29] = Oral bioavailability in Sprague-Dawley rat at 3 mg/kg, po and 1 mg/kg, iv; assay type: ADME, organism-based; details: in vivo
# [30] = target: Adrenergic receptor alpha-1 (Rattus norvegicus) (UniProt P15823+P23944+P43140); assay: Displacement of [3H]prazosin from Adrenergic alpha-1 receptor in rat cerebral cortex cells at 1 uM; assay type: cell-based
# [31] = target: 5-hydroxytryptamine receptor 2A (Homo sapiens, UniProt P28223)
# Chain of 5-hydroxytryptamine receptor 2A (P28223 whole entry): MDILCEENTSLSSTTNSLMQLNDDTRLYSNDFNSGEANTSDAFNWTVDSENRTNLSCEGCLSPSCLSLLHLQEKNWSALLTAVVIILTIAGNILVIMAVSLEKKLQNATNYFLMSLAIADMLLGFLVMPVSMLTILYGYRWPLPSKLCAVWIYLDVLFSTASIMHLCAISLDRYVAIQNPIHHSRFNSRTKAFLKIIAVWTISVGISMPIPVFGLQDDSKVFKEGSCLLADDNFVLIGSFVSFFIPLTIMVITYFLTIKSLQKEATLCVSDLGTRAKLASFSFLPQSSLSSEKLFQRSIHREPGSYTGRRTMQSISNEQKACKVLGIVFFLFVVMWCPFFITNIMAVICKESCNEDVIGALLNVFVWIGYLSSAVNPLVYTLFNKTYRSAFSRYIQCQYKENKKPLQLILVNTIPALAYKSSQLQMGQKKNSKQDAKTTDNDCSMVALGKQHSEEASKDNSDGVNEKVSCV
# Description: Binding affinity to 5HT2A receptor by radioligand binding assay
smiles,measurement,setting,value
CC(=O)Nc1cccc(N2CCN(CCCCNS(=O)(=O)CC3CCCCC3)CC2)c1 [NALUZOTAN],Activity,[1],0%
same,Ki,[2],> 5000 nM
same,IC50,[3],3800 nM
same,half-life at 5 µM,[4],0.467 h
same,inhibition at 1 µM,hERG (KCNH2),21%
same,Ki,[5],> 2000 nM
same,Ki,[6],> 5000 nM
same,Ki,[7],> 5000 nM
same,Ki,[8],> 5000 nM
same,half-life at 5 µM,[9],1.08 h
same,Inhibition,Cytochrome P450 2D6,Not Active
same,Cmax,[10],24 ng/mL
same,bioavailability,[11],16%
same,Cmax,[12],174 ng/mL
same,fraction unbound at 10 µM,[13],0.08
same,Ki,Adrenergic receptor beta,> 2000 nM
same,Ki,Translocator protein,> 2000 nM
same,Ki,[14],> 2000 nM
same,Ki,[15],> 2000 nM
same,Ki,[16],> 2000 nM
same,Ki,[17],> 2000 nM
same,Ki,Cholecystokinin receptor,> 2000 nM
same,half-life,[18],> 10 h
same,Ki,[19],> 2000 nM
same,Ki,Nociceptin receptor,> 2000 nM
same,Ki,[20],> 2000 nM
same,Ki,[21],> 2000 nM
same,Ki,[22],> 10000 nM
same,Ki,[23],> 2000 nM
same,Activity,Mus musculus,Active
same,Activity,Homo sapiens,Active
same,Ki,[24],> 2000 nM
same,Ki,[25],> 2000 nM
same,Ki,[26],5.1 nM
same,Ki,D(2) dopamine receptor,> 2000 nM
same,EC50,[27],20 nM
same,half-life,[28],2 h
same,bioavailability,[29],11%
same,Activity,[30],47%
same,Ki,[31],> 2000 nM
